# From patent publication US9802960B2 (MILLENNIUM PHARMACEUTICALS, INC., priority 2014, dated 2017)
# Target: Human VPS34 (Homo sapiens (Human), UniProt Q8NEB9)
# Assay: Human VPS34 enzyme assay (Adapta TR-FRET)
# Assay type: biochemical
# Conditions: IC50 range class
# Sequence of Human VPS34 (Q8NEB9 whole entry): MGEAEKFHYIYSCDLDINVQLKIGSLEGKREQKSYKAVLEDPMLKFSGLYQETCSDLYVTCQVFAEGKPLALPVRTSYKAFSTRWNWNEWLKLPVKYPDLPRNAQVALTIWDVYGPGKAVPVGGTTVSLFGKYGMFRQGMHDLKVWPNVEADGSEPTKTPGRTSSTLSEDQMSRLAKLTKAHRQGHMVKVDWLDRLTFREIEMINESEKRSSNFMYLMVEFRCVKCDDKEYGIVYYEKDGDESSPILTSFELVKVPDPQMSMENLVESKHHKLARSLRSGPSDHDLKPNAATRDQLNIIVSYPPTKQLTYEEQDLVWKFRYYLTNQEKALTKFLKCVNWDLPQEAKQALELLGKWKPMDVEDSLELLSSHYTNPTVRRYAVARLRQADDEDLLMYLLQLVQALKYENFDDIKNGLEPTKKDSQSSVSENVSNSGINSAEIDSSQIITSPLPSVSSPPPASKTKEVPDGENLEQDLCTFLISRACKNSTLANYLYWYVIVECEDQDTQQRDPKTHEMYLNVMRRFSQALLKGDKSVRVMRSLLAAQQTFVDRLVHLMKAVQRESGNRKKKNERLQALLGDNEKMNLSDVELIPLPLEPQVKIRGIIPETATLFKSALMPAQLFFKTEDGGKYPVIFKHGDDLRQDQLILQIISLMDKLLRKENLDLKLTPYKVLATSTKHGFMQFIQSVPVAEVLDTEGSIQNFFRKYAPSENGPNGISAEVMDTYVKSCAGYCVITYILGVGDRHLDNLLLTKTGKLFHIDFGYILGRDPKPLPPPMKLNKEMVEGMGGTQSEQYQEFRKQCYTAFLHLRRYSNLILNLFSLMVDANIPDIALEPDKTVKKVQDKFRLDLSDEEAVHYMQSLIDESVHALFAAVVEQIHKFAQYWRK
row,Structure (SMILES),IC50
1,"Cc1cccc(Nc2cc(-c3cnc(C)c(NS(=O)(=O)c4ccc(F)cc4F)c3)ccn2)n1 [Compound I-276, 2,4-difluoro-N-{6-methyl-2′-[(6-methylpyridin-2-yl)amino]-3,4′-bipyridin-5-yl}benzenesulfonamide]",< 10 nM

# Same assay, conditions: compound concentration 1.11 μM
row,Structure (SMILES),Percent Inhibition
1,"CCc1c(-c2ccnc(Nc3ccnc(C)n3)c2)cnc(Cl)c1NS(=O)(=O)c1ccc(F)cc1F [Compound I-259, N-{6-chloro-4-ethyl-2′-[(2-methylpyrimidin-4-yl)amino]-3,4′-bipyridin-5-yl}-2,4-difluorobenzene sulfonamide]",79%
2,"Cc1nccc(Nc2cc(-c3cnc(N)c(C(=O)N(C)C45CC(C4)C5)c3)ccn2)n1 [Compound I-277, 6-amino-N-(bicyclo[1.1.1]pent-1-yl)-N-methyl-2′-[(2-methylpyrimidin-4-yl)amino]-3,4′-bipyridine-5-carboxamide]",100%

# Same assay, conditions: compound concentration 1.11 μM; read-out: Percent Inhibition
row,inhibition at 1.11 µM,Structure (SMILES)
1,96%,"COC(=O)Nc1cc(-c2cnc(C)c(NS(=O)(=O)N(C)C)c2)ccn1 [Compound I-241, methyl {5-[(dimethylsulfamoyl)amino]-6-methyl-3,4′-bipyridin-2′-yl}carbamate]"
2,88%,"Cc1nccc(Nc2cc(-c3cnc(Cl)c(S(=O)(=O)NC45CC(C4)C5)c3)ccn2)n1 [Compound I-242, N-(bicyclo[1.1.1]pent-1-yl)-6-chloro-2′-[(2-methylpyrimidin-4-yl)amino]-3,4′-bipyridine-5-sulfonamide]"
3,85%,"CC(=O)Nc1cc(-c2cnc(Cl)c(NS(=O)(=O)c3ccc(Cl)cc3Cl)c2C)ccn1 [Compound I-243, N-(6-chloro-5-{[(2,4-dichlorophenyl)sulfonyl]amino}-4-methyl-3,4′-bipyridin-2′-yl)acetamide]"
4,82%,"Cc1ncc(-c2ccnc(NC(=O)C3CC3(F)F)c2)cc1NS(=O)(=O)N(C)C (stereo not shown) [Compound I-244, N-{5-[(dimethylsulfamoyl)amino]-6-methyl-3,4′-bipyridin-2′-yl}-2,2-difluorocyclopropanecarboxamide]"
5,> 99%,"COc1nccc(Nc2cc(-c3cncc(C(=O)N(C)C45CC(C4)C5)c3)ccn2)n1 [Compound I-245, N-(bicyclo[1.1.1]pent-1-yl)-2′-[(2-methoxypyrimidin-4-yl)amino]-N-methyl-3,4′-bipyridine-5-carboxamide]"
6,91%,"Cc1ncc(-c2ccnc(Nc3ccnc(C4CC4)n3)c2)cc1C(=O)N1CCC1 [Compound I-246, azetidin-1-yl{2′-[(2-cyclopropylpyrimidin-4-yl)amino]-6-methyl-3,4′-bipyridin-5-yl}methanone]"
7,> 99%,"CC(=O)Nc1cc(-c2cnc(C)c(NS(=O)(=O)c3ccc(F)cc3F)c2C)ccn1 [Compound I-247, N-(5-{[(2,4-difluorophenyl)sulfonyl]amino}-4,6-dimethyl-3,4′-bipyridin-2′-yl)acetamide]"
8,> 99%,"COc1ncc(-c2ccnc(NC(C)=O)c2)c(C)c1NS(=O)(=O)c1ccc(F)cc1F [Compound I-248, N-(5-{[(2,4-difluorophenyl)sulfonyl]amino}-6-methoxy-4-methyl-3,4′-bipyridin-2′-yl)acetamide]"
9,85%,"Cc1nccc(Nc2cc(-c3cnc(C)c(NC(=O)c4ccc(F)cc4F)c3)ccn2)n1 [Compound I-249, 2,4-difluoro-N-{6-methyl-2′-[(2-methylpyrimidin-4-yl)amino]-3,4′-bipyridin-5-yl}benzamide]"
10,99%,"CC(=O)Nc1cc(-c2cnc(Cl)c(NS(=O)(=O)c3ccc(F)cc3F)c2C)c(C)cn1 [Compound I-250, N-(6-chloro-5-{[(2,4-difluorophenyl)sulfonyl]amino}-4,5′-dimethyl-3,4′-bipyridin-2′-yl)acetamide]"
11,97%,"CC(=O)Nc1cc(-c2cnc(Cl)c(NS(=O)(=O)c3ccccc3F)c2C)ccn1 [Compound I-251, N-(6-chloro-5-{[(2-fluorophenyl)sulfonyl]amino}-4-methyl-3,4′-bipyridin-2′-yl)acetamide]"
12,> 99%,"COc1ncc(-c2ccnc(Nc3ccnc(C)n3)c2)cc1C(=O)N(C)c1ccc(F)cc1F [Compound I-252, N-(2,4-difluorophenyl)-6-methoxy-N-methyl-2′-[(2-methylpyrimidin-4-yl)amino]-3,4′-bipyridine-5-carboxamide]"
13,96%,"Cc1nccc(Nc2cc(-c3cnc(C)c(C(=O)O)c3)ccn2)n1 [Compound I-253, 6-methyl-2′-((2-methylpyrimidin-4-yl)amino)-[3,4′-bipyridine]-5-carboxylic acid]"
14,77%,"Cc1c(-c2ccnc(NC(=O)C3CC3(F)F)c2)cnc(Cl)c1NS(=O)(=O)c1ccc(F)cc1F (stereo not shown) [Compound I-254, N-(6-chloro-5-{[(2,4-difluorophenyl)sulfonyl]amino}-4-methyl-3,4′-bipyridin-2′-yl)-2,2-difluorocyclopropanecarboxamide]"
15,95%,"COC(=O)Nc1cc(-c2cnc(Cl)c(NS(=O)(=O)c3ccc(F)cc3F)c2C)ccn1 [Compound I-255, methyl (6-chloro-5-{[(2,4-difluorophenyl)sulfonyl]amino}-4-methyl-3,4′-bipyridin-2′-yl)carbamate]"
16,94%,"CNc1c(Cl)ncc(-c2ccnc(Nc3ccnc(C)n3)c2)c1C [Compound I-256, 6-chloro-N~5~,4-dimethyl-N~2~′-(2-methylpyrimidin-4-yl)-3,4′-bipyridine-2′,5-diamine]"
17,> 99%,"CC(=O)Nc1cc(-c2cnc(C)c(NS(=O)(=O)N3CCC3)c2)ccn1 [Compound I-257, N-{5-[(azetidin-1-ylsulfonyl)amino]-6-methyl-3,4′-bipyridin-2′-yl}acetamide]"

row,inhibition at 1.11 µM,Structure (SMILES)
1,88%,"CC(=O)Nc1cc(-c2cc(NS(=O)(=O)c3ccc(F)cc3F)c(C)[n+]([O-])c2)ccn1 [Compound I-258, N-[4-(5-{[(2,4-difluorophenyl)sulfonyl]amino}-6-methyl-1-oxidopyridin-3-yl)pyridin-2-yl]acetamide]"
2,91%,"CC(=O)Nc1cc(-c2cnc(C)c(NS(=O)(=O)N(C)C)c2C)ccn1 [Compound I-260, N-{5-[(dimethylsulfamoyl)amino]-4,6-dimethyl-3,4′-bipyridin-2′-yl}acetamide]"
3,81%,"Cc1nccc(Nc2cc(-c3cnc(C)c(C(=O)N4CCCCC4)c3)ccn2)n1 [Compound I-262, {6-methyl-2′-[(2-methylpyrimidin-4-yl)amino]-3,4′-bipyridin-5-yl}(piperidin-1-yl)methanone]"
4,53%,"Cc1ncc(-c2ccnc(-n3cnc4c(C)nccc43)c2)cc1NS(=O)(=O)N(C)C [Compound I-263, N,N-dimethyl-N-[6-methyl-2′-(4-methyl-1H-imidazo[4,5-c]pyridin-1-yl)-3,4′-bipyridin-5-yl]sulfuric diamide]"
5,100%,"Cc1c(-c2ccnc(Nc3ccnc(-c4ccccc4)n3)c2)cnc(Cl)c1NS(=O)(=O)c1ccc(F)cc1F [Compound I-264, N-{6-chloro-4-methyl-2′-[(2-phenylpyrimidin-4-yl)amino]-3,4′-bipyridin-5-yl}-2,4-difluorobenzenesulfonamide]"
6,> 99%,"Cc1ncc(-c2ccnc(Nc3ncccn3)c2)cc1NS(=O)(=O)c1ccc(F)cc1F [Compound I-265, 2,4-difluoro-N-[6-methyl-2′-(pyrimidin-2-ylamino)-3,4′-bipyridin-5-yl]benzenesulfonamide]"
7,100%,"Cc1nccc(Nc2cc(-c3cnc(C)c(C(=O)N(C)C)c3)ccn2)n1 [Compound I-266, N,N,6-trimethyl-2′-[(2-methylpyrimidin-4-yl)amino]-3,4′-bipyridine-5-carboxamide]"
8,97%,"Cc1ncc(-c2ccnc(NC(=O)C3CC3(F)F)c2)cc1NS(=O)(=O)c1ccc(F)cc1F (stereo not shown) [Compound I-267a, N-(5-{[(2,4-difluorophenyl)sulfonyl]amino}-6-methyl-3,4′-bipyridin-2′-yl)-2,2-difluorocyclopropanecarboxamide]"
9,100%,"COc1ncc(-c2ccnc(NC(C)=O)c2)c(C)c1NS(=O)(=O)N(C)C [Compound I-268, N-{5-[(dimethylsulfamoyl)amino]-6-methoxy-4-methyl-3,4′-bipyridin-2′-yl}acetamide]"
10,> 99%,"CC(=O)Nc1cc(-c2cnc(C)c(NS(=O)(=O)N3CCN(C)CC3)c2)ccn1 [Compound I-269, N-(6-methyl-5-{[(4-methylpiperazin-1-yl)sulfonyl]amino}-3,4′-bipyridin-2′-yl)acetamide]"
11,91%,"Cc1ncc(-c2ccnc(Nc3nc4ccccc4s3)c2)cc1NS(=O)(=O)c1ccc(F)cc1F [Compound I-271, N-[2′-(1,3-benzothiazol-2-ylamino)-6-methyl-3,4′-bipyridin-5-yl]-2,4-difluorobenzenesulfonamide]"
12,> 99%,"Cc1cc(Nc2cc(-c3cnc(Cl)c(NS(=O)(=O)c4ccc(F)cc4F)c3C)ccn2)ccn1 [Compound I-272, N-{6-chloro-4-methyl-2′-[(2-methylpyridin-4-yl)amino]-3,4′-bipyridin-5-yl}-2,4-difluorobenzenesulfonamide]"
13,> 99%,"CCN(C)S(=O)(=O)Nc1cc(-c2ccnc(NC(C)=O)c2)cnc1C [Compound I-273, N-(5-{[ethyl(methyl)sulfamoyl]amino}-6-methyl-3,4′-bipyridin-2′-yl)acetamide]"
14,> 99%,"CC(=O)Nc1cc(-c2cnc(C)c(NS(=O)(=O)N3CCCC3)c2)ccn1 [Compound I-274, N-{6-methyl-5-[(pyrrolidin-1-ylsulfonyl)amino]-3,4′-bipyridin-2′-yl}acetamide]"
15,> 99%,"Cc1nccc(Nc2cc(-c3cnc(C)c(C(=O)N(C)C45CC(C4)C5)c3)ccn2)n1 [Compound I-275, N-(bicyclo[1.1.1]pent-1-yl)-N,6-dimethyl-2′-[(2-methylpyrimidin-4-yl)amino]-3,4′-bipyridine-5-carboxamide]"
16,> 99%,"CCc1c(-c2ccnc(NC(=O)C3CC3)c2)cnc(Cl)c1NS(=O)(=O)c1ccc(F)cc1F [Compound I-278, N-(6-chloro-5-{[(2,4-difluorophenyl)sulfonyl]amino}-4-ethyl-3,4′-bipyridin-2′-yl)cyclopropanecarboxamide]"

row,Structure (SMILES),inhibition at 1.11 µM
1,"Cc1cccc(Nc2cc(-c3cnc(C)c(NS(=O)(=O)c4ccc(F)cc4F)c3)ccn2)n1 [Compound I-276, 2,4-difluoro-N-{6-methyl-2′-[(6-methylpyridin-2-yl)amino]-3,4′-bipyridin-5-yl}benzenesulfonamide]",96%
